One compound from PMC6988797, “Antiarrhythmic Properties of Ranolazine: Inhibition of Atrial Fibrillation Associated TASK-1 Potassium Channels” (Frontiers in Pharmacology, 2019) can be followed below.

Holding throughout (assay type): cell-based
Experiment [1] has as its target T1, TASK-2 (Homo sapiens, UniProt O95279).
T1 construct: gene KCNK5
T1 sequence (O95279 1-499): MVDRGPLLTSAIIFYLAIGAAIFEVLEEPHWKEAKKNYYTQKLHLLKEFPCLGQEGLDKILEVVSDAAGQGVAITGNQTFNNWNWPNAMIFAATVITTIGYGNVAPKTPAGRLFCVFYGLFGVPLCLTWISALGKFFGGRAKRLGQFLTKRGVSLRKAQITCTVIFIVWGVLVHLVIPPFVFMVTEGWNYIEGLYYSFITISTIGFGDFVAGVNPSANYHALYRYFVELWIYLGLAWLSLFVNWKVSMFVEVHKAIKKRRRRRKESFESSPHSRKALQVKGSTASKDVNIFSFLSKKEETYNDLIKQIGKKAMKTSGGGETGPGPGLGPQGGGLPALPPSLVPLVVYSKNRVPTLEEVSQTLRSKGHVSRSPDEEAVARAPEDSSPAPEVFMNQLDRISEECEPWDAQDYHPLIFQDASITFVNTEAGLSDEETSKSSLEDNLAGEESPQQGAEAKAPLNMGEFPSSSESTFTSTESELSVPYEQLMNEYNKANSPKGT
Put plainly: two-electrode voltage clamp in Xenopus laevis oocytes, […] ranolazine. On the technique in general: Two-electrode voltage clamp is typically applied to oocytes expressing channels or transporters.

Experiment [2] addresses T2, TALK-1 (Homo sapiens, UniProt Q96T55).
T2 construct: gene KCNK16
T2 sequence (Q96T55 1-309): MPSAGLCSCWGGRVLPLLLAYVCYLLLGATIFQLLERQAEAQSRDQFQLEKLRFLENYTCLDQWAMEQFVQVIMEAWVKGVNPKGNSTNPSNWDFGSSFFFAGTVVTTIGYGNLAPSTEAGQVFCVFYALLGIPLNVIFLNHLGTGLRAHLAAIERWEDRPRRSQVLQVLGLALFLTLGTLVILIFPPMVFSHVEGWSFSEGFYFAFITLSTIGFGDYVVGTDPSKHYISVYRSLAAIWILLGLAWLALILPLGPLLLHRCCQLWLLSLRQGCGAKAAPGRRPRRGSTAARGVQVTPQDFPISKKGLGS
The description is as above.

Experiment [3] concerns the target T3, TASK-3 (Homo sapiens, UniProt Q9NPC2).
T3 construct: gene KCNK9
The experiment is described as above.

Experiment [4] has as its target T4, TASK-1 (Homo sapiens, UniProt O14649).
T4 construct: gene KCNK3
Put plainly: whole-cell patch clamp in CHO cells; two-electrode voltage clamp in Xenopus laevis oocytes; pore mutagenesis.

In experiment [5] the target is T5, TALK-2 (Homo sapiens, UniProt Q96T54).
T5 construct: gene KCNK17
T5 sequence (Q96T54 1-332): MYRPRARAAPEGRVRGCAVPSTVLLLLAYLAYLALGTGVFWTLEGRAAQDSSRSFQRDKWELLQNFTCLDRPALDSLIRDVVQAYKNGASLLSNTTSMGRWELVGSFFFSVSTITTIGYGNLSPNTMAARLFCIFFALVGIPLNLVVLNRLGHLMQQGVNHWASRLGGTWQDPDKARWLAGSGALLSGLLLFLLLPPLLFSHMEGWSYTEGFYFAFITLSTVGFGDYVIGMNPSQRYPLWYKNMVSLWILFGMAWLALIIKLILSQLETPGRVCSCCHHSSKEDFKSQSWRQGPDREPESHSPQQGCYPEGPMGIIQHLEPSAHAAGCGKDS
Briefly: two-electrode voltage clamp in Xenopus laevis oocytes, […] ranolazine.

T3 sequence (Q9NPC2 whole entry): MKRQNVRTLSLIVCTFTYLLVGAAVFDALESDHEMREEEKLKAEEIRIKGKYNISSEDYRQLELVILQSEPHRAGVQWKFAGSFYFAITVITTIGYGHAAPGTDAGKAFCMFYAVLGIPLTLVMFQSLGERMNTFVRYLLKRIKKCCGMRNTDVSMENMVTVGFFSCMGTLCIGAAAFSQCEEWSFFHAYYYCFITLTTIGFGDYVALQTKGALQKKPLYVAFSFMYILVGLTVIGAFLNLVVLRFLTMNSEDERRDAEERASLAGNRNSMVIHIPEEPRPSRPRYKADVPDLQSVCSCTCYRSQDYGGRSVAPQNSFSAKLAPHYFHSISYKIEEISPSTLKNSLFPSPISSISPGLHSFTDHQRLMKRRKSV
T4 sequence (O14649 whole entry): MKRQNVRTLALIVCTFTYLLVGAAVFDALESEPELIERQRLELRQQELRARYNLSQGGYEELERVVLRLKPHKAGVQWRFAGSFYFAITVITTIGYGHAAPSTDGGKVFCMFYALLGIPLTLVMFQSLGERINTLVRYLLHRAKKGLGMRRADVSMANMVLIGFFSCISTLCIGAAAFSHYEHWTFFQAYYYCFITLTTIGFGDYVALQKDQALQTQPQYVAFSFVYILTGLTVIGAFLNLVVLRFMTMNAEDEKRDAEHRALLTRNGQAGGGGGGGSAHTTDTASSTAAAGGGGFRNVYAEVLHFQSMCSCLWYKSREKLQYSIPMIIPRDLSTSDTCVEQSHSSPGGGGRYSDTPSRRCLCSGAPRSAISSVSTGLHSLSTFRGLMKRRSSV

As a reminder, the inhibition is the drop in the measured response relative to a control, in per cent. The low end stands for a response near the control, the high end for a response far below the control. A word on the IC50: it is the concentration at which inhibition is half-maximal. Turning to `COc1ccccc1OCC(O)CN1CCN(CC(=O)Nc2c(C)cccc2C)CC1` (centres unmarked) [ranolazine], the inhibition at 300 µM was found to be 30% in experiment [1], 23% in experiment [2], 28.3% in experiment [3] and 34.9% in experiment [5]. Moreover, the midpoint of inhibition in experiment [4], the IC50, lay at 30.6 µM.
